In ChEMBL document CHEMBL5543081, “Design, synthesis and evaluation of antioxidant and anti-inflammatory activities of novel resveratrol derivatives as potential multifunctional drugs” (Eur J Med Chem, 2024):
Activity calls are given as the source filed them. The calls are words filed in the database; no cut-off is given here.

Tests used:
[1] = Antioxidant activity assessed as DPPH radical scavenging activity measured for 30 mins by spectrophotometric analysis; type: functional
[2] = Antioxidant activity assessed as ABTS radical scavenging activity after 20 mins; type: functional
[3] = Antioxidant activity assessed as FRAP radical scavenging activity by measuring reduction of Fe3+ complex to Fe2+ analogue incubated for 30 mins by FRAP assay; type: functional
RAW264.7 [4] = assay: Cytotoxicity against mouse RAW264.7 cells at 10 uM measured after 24 hrs by MTT assay relative to control; type: functional
RAW264.7 [5] = assay: Upregulation of Nrf2 expression in H2O2 induced mouse RAW264.7 cells at 10 uM by Western blot analysis; type: functional, cell-based
RAW264.7 [6] = assay: Effect on KEAP1 level in H2O2 induced mouse RAW264.7 cells at 2.5 to 10 uM by Western blot analysis; type: functional, cell-based; details: dose 2.5-10 µM
RAW264.7 [7] = assay: Protection against H2O2 induced apoptosis in mouse RAW264.7 cells assessed as cell apoptosis rate at 10 uM preincubated for 3 hrs with compound followed by H2O2 stimulation and measured after 3 hrs by annexin V-FITC and PI staining based flow cytometry analysis; type: functional; details: time 6.0 hrs
RAW264.7 [8] = assay: Protection against H2O2 induced apoptosis in mouse RAW264.7 cells assessed as decrease in cleaved caspase-3 expression at 10 uM by Western blot analysis; type: functional, cell-based
RAW264.7 [9] = assay: Protection against H2O2 induced apoptosis in mouse RAW264.7 cells assessed as decrease in cleaved PARP expression at 10 uM by Western blot analysis; type: functional, cell-based
RAW264.7 [10] = assay: Antiinflammatory activity in LPS-stimulated mouse RAW264.7 cells assessed as effect on ERK phosphorylation level preincubated for 4 hrs followed by LPS stimulation for 12 hrs by Western blot analysis; type: functional, cell-based; details: time 16.0 hrs
RAW264.7 [11] = assay: Inhibition of H2O2 induced ROS production in mouse RAW264.7 cells assessed as decrease in ROS level at 10 uM preincubated for 3 hrs followed by H2O2 addition and measured after 3 hrs DCFH-DA staining based flow cytometry analysis; type: functional, cell-based; details: time 6.0 hrs
RAW264.7 [12] = assay: Inhibition of H2O2 induced ROS production in mouse RAW264.7 cells assessed as decrease in ROS level preincubated for 3 hrs followed by H2O2 addition and measured after 3 hrs DCFH-DA staining based flow cytometry analysis; type: functional, cell-based; details: dose 2.5-10 µM, time 6.0 hrs
RAW264.7 [13] = assay: Antiinflammatory activity against mouse RAW264.7 cells assessed as inhibition of LPS-induced NO production at 10 uM preincubated for 4 hrs with compound followed by LPS stimulation and measured after 12 hrs; type: functional, cell-based; details: time 16.0 hrs
RAW264.7 [14] = assay: Upregulation of Nrf2 expression in H2O2 induced mouse RAW264.7 cells by Western blot analysis; type: functional, cell-based; details: dose 2.5-10 µM
RAW264.7 [15] = assay: Upregulation of SOD mRNA expression in H2O2 induced mouse RAW264.7 cells at 2.5 to 10 uM by RT-qPCR analysis; type: functional, cell-based; details: dose 2.5-10 µM
RAW264.7 [16] = assay: Upregulation of CAT mRNA expression in H2O2 induced mouse RAW264.7 cells at 2.5 to 10 uM by RT-qPCR analysis; type: functional, cell-based; details: dose 2.5-10 µM
RAW264.7 [17] = assay: Upregulation of GPx mRNA expression in H2O2 induced mouse RAW264.7 cells at 2.5 to 10 uM by RT-qPCR analysis; type: functional, cell-based; details: dose 2.5-10 µM
RAW264.7 [18] = assay: Upregulation of HO-1 protein level in H2O2 induced mouse RAW264.7 cells at 2.5 to 10 uM by Western blot analysis; type: functional, cell-based; details: dose 2.5-10 µM
RAW264.7 [19] = assay: Upregulation of HO-1 mRNA expression in H2O2 induced mouse RAW264.7 cells at 2.5 to 10 uM by RT-qPCR analysis; type: functional, cell-based; details: dose 2.5-10 µM
RAW264.7 [20] = assay: Protection against H2O2 induced apoptosis in mouse RAW264.7 cells assessed as cell apoptosis rate at 10 uM preincubated for 3 hrs with compound followed by H2O2 stimulation and measured after 3 hrs by annexin V-FITC and PI staining based flow cytometry analysis (reference value: 15.63%); type: functional; details: time 6 hrs
RAW264.7 [21] = assay: Antiinflammatory activity in LPS-stimulated mouse RAW264.7 cells assessed as reduction in iNOS level preincubated for 4 hrs followed by LPS stimulation for 12 hrs by Western blot analysis; type: functional, cell-based; details: dose 2.5-10 µM, time 16.0 hrs
RAW264.7 [22] = assay: Antiinflammatory activity in LPS-stimulated mouse RAW264.7 cells assessed as reduction in iNOS mRNA expression preincubated for 4 hrs followed by LPS stimulation for 12 hrs by RT-qPCR analysis; type: functional, cell-based; details: dose 2.5-10 µM, time 16.0 hrs
RAW264.7 [23] = assay: Antiinflammatory activity in LPS-stimulated mouse RAW264.7 cells assessed as reduction in NF-kappaB p65 phosphorylation level at 10 uM preincubated for 4 hrs followed by LPS stimulation for 12 hrs by Western blot analysis; type: functional, cell-based; details: time 16.0 hrs
RAW264.7 [24] = assay: Antiinflammatory activity in LPS-stimulated mouse RAW264.7 cells assessed as inhibition of p38 phosphorylation level preincubated for 4 hrs followed by LPS stimulation for 12 hrs by Western blot analysis; type: functional, cell-based; details: dose 2.5-10 µM, time 16.0 hrs
RAW264.7 [25] = assay: Antiinflammatory activity in LPS-stimulated mouse RAW264.7 cells assessed as inhibition of JNK phosphorylation level preincubated for 4 hrs followed by LPS stimulation for 12 hrs by Western blot analysis; type: functional, cell-based; details: dose 2.5-10 µM, time 16.0 hrs

Nc1ccccc1C(=O)N/N=C\c1c(O)cc(O)cc1/C=C/c1ccc(O)cc1
IC50 [1]: 39.8 µM
IC50 [2]: 8.5 µM
Activity [3]: 1.5 µM

O=C(N/N=C\c1c(O)cc(O)cc1/C=C/c1ccc(O)cc1)c1ccncc1
Activity (RAW264.7 [4]): >80%
IC50 [1]: 104 µM
IC50 [2]: 13.5 µM
Activity [3]: 1.1 µM

O=C(N/N=C\c1c(O)cc(O)cc1/C=C/c1ccc(O)cc1)c1ccccc1O
IC50 [1]: 37.8 µM
IC50 [2]: 12.8 µM
Activity [3]: 0.9 µM

O=C(N/N=C\c1c(O)cc(O)cc1/C=C/c1ccc(O)cc1)c1cccc(Cl)c1
IC50 [1]: 81.9 µM
IC50 [2]: 15.2 µM
Activity [3]: 0.9 µM

Nc1ccc(C(=O)N/N=C\c2c(O)cc(O)cc2/C=C/c2ccc(O)cc2)cc1
Activity (RAW264.7 [4]): >80%
IC50 [1]: 46.2 µM
IC50 [2]: 9.7 µM
Activity [3]: 2.2 µM

Oc1ccc(/C=C/c2cc(O)cc(O)c2)cc1 [RESVERATROL]
Activity (RAW264.7 [5]): inactive
Activity (RAW264.7 [6]): inactive
Activity (RAW264.7 [7]): inactive
Activity (RAW264.7 [8]): inactive
Activity (RAW264.7 [9]): inactive
Activity (RAW264.7 [10]): inactive
IC50 [1]: 86.6 µM
IC50 [2]: 18.4 µM
Activity [3]: 0.9 µM

O=C(N/N=C\c1c(O)cc(O)cc1/C=C/c1ccc(O)cc1)c1ccc(O)cc1
Activity (RAW264.7 [4]): >80%
inhibition (RAW264.7 [11]): Active
inhibition (RAW264.7 [12]): Dose-Dependent Effect
Activity (RAW264.7 [13]): Active
Activity (RAW264.7 [14]): Dose-Dependent Effect
Activity (RAW264.7 [6]): inactive
Activity (RAW264.7 [15]): inactive
Activity (RAW264.7 [16]): inactive
Activity (RAW264.7 [17]): inactive
Activity (RAW264.7 [18]): Active
Activity (RAW264.7 [19]): Active
Activity (RAW264.7 [20]): 26.58%
Activity (RAW264.7 [8]): Active
Activity (RAW264.7 [9]): Active
Activity (RAW264.7 [21]): Dose-Dependent Effect
Activity (RAW264.7 [22]): Dose-Dependent Effect
Activity (RAW264.7 [23]): Active
Activity (RAW264.7 [24]): Dose-Dependent Effect
Activity (RAW264.7 [25]): Dose-Dependent Effect
Activity (RAW264.7 [10]): inactive
IC50 [1]: 69.9 µM
IC50 [2]: 13 µM
Activity [3]: 1.1 µM

O=C(N/N=C\c1c(O)cc(O)cc1/C=C/c1ccc(O)cc1)c1cccc([N+](=O)[O-])c1
IC50 [1]: 79.9 µM
IC50 [2]: 11.6 µM
Activity [3]: 0.4 µM

O=C(N/N=C\c1c(O)cc(O)cc1/C=C/c1ccc(O)cc1)c1ccc(F)cc1
IC50 [1]: 86.3 µM
IC50 [2]: 15.7 µM
Activity [3]: 0.8 µM

O=C(N/N=C\c1c(O)cc(O)cc1/C=C/c1ccc(O)cc1)c1ccc(Cl)cc1
IC50 [1]: 89.5 µM
IC50 [2]: 17.9 µM
Activity [3]: 0.7 µM

Cc1ccc(C(=O)N/N=C\c2c(O)cc(O)cc2/C=C/c2ccc(O)cc2)cc1
IC50 [1]: 87 µM
IC50 [2]: 15.7 µM
Activity [3]: 0.5 µM

O=C(N/N=C\c1c(O)cc(O)cc1/C=C/c1ccc(O)cc1)c1ccc(Br)cc1
IC50 [1]: 84 µM
IC50 [2]: 13 µM
Activity [3]: 0.5 µM

O=C(N/N=C\c1c(O)cc(O)cc1/C=C/c1ccc(O)cc1)c1ccccn1
Activity (RAW264.7 [4]): >80%
inhibition (RAW264.7 [11]): Active
Activity (RAW264.7 [13]): Active
IC50 [1]: 98.3 µM
IC50 [2]: 17.1 µM
Activity [3]: 0.9 µM

N#Cc1ccc(C(=O)N/N=C\c2c(O)cc(O)cc2/C=C/c2ccc(O)cc2)cc1
IC50 [1]: 84 µM
IC50 [2]: 18.2 µM
Activity [3]: 0.6 µM

Cc1c(C)c2c(c(C)c1O)CCC(C)(C(=O)O)O2 (stereo not given) [TROLOX]
IC50 [1]: 32.7 µM
IC50 [2]: 14.7 µM
Activity [3]: 2.5 µM

O=C(N/N=C\c1c(O)cc(O)cc1/C=C/c1ccc(O)cc1)c1ccccc1
IC50 [1]: 84.4 µM
IC50 [2]: 13.4 µM
Activity [3]: 0.7 µM

Cc1cccc(C(=O)N/N=C\c2c(O)cc(O)cc2/C=C/c2ccc(O)cc2)c1
IC50 [1]: 80.8 µM
IC50 [2]: 18 µM
Activity [3]: 0.9 µM

O=C(N/N=C\c1c(O)cc(O)cc1/C=C/c1ccc(O)cc1)c1cccc(O)c1
Activity (RAW264.7 [4]): >80%
Activity (RAW264.7 [13]): Active
IC50 [1]: 76.6 µM
IC50 [2]: 11.7 µM
Activity [3]: 1.3 µM

O=C(N/N=C\c1c(O)cc(O)cc1/C=C/c1ccc(O)cc1)c1ccccc1F
IC50 [1]: 97.8 µM
IC50 [2]: 17.3 µM
Activity [3]: 1 µM

O=C(N/N=C\c1c(O)cc(O)cc1/C=C/c1ccc(O)cc1)c1cccc(F)c1
IC50 [1]: 82.6 µM
IC50 [2]: 12.5 µM
Activity [3]: 0.8 µM

Cc1ccccc1C(=O)N/N=C\c1c(O)cc(O)cc1/C=C/c1ccc(O)cc1
IC50 [1]: 97.3 µM
IC50 [2]: 17.2 µM
Activity [3]: 0.4 µM

O=C(N/N=C\c1c(O)cc(O)cc1/C=C/c1ccc(O)cc1)c1cccnc1
Activity (RAW264.7 [4]): >80%
IC50 [1]: 89.5 µM
IC50 [2]: 12.7 µM
Activity [3]: 1.2 µM
